Calls of active or inactive are those of the source. No cut-off for these calls is given here.
Assays:
[1] = target: Xanthine dehydrogenase/oxidase (Bos taurus, UniProt P80457); experiment: Inhibition of bovine milk xanthine oxidase
[2] = test system: NCI-H1975; assay type: functional, cell-based; settings: Homo sapiens, NCI-H1975, 48 h
[3] = test system: HL-60; assay type: functional, cell-based; settings: Homo sapiens, HL-60, 48 h
[4] = test system: MDA-MB-231; experiment: cells; settings: Homo sapiens, MDA-MB-231, 48 h
Description: Cytotoxicity against human MDA-MB-231 cells incubated for 48 hrs by MTT assay

[5] = test system: HL-60; experiment: Downregulation of mTOR expression level in human HL-60 cells at 0.5 to 2 uM by Western blotting analysis; assay type: functional, cell-based; settings: dose 0.5-2 µM
[6] = test system: Rattus norvegicus; experiment: Anti-hyperuricemic activity against potassium oxonate-induced hyperuricemia Wistar rat model assessed as decrease in serum uric acid level at 10 mg/kg measured after 14 days; assay type: functional, organism-based; settings: time 14.0 day
[7] = test system: Rattus norvegicus; experiment: Anti-hyperuricemic activity against potassium oxonate-induced hyperuricemia Wistar rat model assessed as decrease in serum creatinine level at 10 mg/kg measured after 14 days; assay type: functional, organism-based; settings: time 14.0 day
[8] = test system: Rattus norvegicus; experiment: Anti-hyperuricemic activity against potassium oxonate-induced hyperuricemia Wistar rat model assessed as decrease in blood urea level at 10 mg/kg measured after 14 days; assay type: functional, organism-based; settings: time 14.0 day

Chain of Xanthine dehydrogenase/oxidase (P80457 whole entry): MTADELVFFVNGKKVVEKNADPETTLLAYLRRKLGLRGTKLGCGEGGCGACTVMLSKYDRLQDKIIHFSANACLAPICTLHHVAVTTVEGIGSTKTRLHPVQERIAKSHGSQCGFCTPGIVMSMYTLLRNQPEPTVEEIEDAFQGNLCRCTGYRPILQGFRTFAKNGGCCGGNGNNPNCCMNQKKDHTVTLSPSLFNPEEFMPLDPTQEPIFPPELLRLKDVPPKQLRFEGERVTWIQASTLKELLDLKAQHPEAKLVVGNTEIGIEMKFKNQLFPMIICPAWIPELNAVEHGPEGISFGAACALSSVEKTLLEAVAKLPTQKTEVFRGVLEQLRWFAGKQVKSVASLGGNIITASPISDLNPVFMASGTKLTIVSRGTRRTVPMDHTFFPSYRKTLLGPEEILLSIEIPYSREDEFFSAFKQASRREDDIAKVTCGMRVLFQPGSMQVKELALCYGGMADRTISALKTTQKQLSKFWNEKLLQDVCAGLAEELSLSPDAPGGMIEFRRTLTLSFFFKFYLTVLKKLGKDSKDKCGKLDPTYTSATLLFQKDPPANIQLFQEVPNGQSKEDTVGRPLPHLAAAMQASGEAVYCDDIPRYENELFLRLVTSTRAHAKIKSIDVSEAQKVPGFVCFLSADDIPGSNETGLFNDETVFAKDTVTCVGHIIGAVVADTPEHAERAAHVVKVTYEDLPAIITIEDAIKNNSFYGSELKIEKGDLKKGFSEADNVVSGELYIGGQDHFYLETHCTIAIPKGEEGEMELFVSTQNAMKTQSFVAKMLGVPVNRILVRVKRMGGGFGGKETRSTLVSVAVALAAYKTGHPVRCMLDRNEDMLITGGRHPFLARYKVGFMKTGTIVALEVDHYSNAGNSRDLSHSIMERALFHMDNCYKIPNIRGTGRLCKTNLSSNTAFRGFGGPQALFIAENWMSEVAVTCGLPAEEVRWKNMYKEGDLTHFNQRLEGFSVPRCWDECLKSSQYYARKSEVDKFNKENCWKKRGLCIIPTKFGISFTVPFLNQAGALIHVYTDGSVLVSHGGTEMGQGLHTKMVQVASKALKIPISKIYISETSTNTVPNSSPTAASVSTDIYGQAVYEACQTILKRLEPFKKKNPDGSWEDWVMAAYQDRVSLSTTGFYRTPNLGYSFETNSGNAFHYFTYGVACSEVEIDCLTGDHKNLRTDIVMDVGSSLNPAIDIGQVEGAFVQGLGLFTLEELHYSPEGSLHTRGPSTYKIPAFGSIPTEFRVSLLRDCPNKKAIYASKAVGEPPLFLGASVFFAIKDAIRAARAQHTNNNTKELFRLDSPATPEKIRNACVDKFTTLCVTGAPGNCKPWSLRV

Row | Compound | IC50 [1] | IC50 [2] | IC50 [3] | IC50 [4] | Activity [5] | Activity [6] | Activity [7] | Activity [8]
1 | Cc1nc(-c2ccc(OCC(C)C)c(C#N)c2)sc1C(=O)NCc1ccc(NC(=O)CCCCCC(=O)NO)cc1 | > 2 µM | > 50 µM | 18 µM | > 50 µM |  |  |  | 
2 | Cc1nc(-c2ccc(OCC(C)C)c(C#N)c2)sc1C(=O)NCc1ccc(NC(=O)CCCCCCC(=O)Nc2ccccc2N)cc1 | > 2 µM | 9.36 µM | 1.58 µM | 5.55 µM |  |  |  | 
3 | Cc1nc(-c2ccc(OCC(C)C)c(C#N)c2)sc1C(=O)NCc1ccc(C(=O)NO)cc1 | 0.021 µM | 11.4 µM | 0.805 µM | 4.09 µM |  |  |  | 
4 | Cc1nc(-c2ccc(OCC(C)C)c(C#N)c2)sc1C(=O)NCc1ccc(NC(=O)CCCCCCCCC(=O)NO)cc1 | > 2 µM | 8.61 µM | 3.04 µM | > 50 µM |  |  |  | 
5 | Cc1nc(-c2ccc(OCC(C)C)c(C#N)c2)sc1C(=O)NCc1ccc(NC(=O)CCCCCC(=O)Nc2ccccc2N)cc1 | > 2 µM | 28.3 µM | 11.8 µM | 19.6 µM |  |  |  | 
6 | Cc1nc(-c2ccc(OCC(C)C)c(C#N)c2)sc1C(=O)NCc1ccc(NC(=O)CCCCCCCC(=O)NO)cc1 | > 2 µM | 18.7 µM | > 50 µM | 31.5 µM |  |  |  | 
7 | Cc1nc(-c2ccc(OCC(C)C)c(C#N)c2)sc1C(=O)NO | 0.0033 µM | > 50 µM | 10.6 µM | > 50 µM |  |  |  | 
8 | Cc1nc(-c2ccc(OCC(C)C)c(C#N)c2)sc1C(=O)NCc1ccc(C(=O)NCCCCCCC(=O)NO)cc1 | > 2 µM | > 50 µM | 0.56 µM | 9.9 µM |  |  |  | 
9 | Cc1nc(-c2ccc(OCC(C)C)c(C#N)c2)sc1C(=O)NCc1ccc(C(=O)Nc2ccccc2N)cc1 | > 2 µM | 18.3 µM | 1.01 µM | 9.63 µM |  |  |  | 
10 | Cc1nc(-c2ccc(OCC(C)C)c(C#N)c2)sc1C(=O)NCc1ccc(NC(=O)CCCCCCCCC(=O)Nc2ccccc2N)cc1 | > 2 µM | 28.8 µM | 4.25 µM | 3.38 µM |  |  |  | 
11 | Cc1nc(-c2ccc(OCC(C)C)c(C#N)c2)sc1C(=O)NCCCCCC(=O)Nc1ccccc1N | 0.7 µM | 18.2 µM | 1.71 µM | 7.08 µM |  |  |  | 
12 | O=C(CCCCCCC(=O)Nc1ccccc1)NO |  |  |  |  | Active |  |  | 
13 | Cc1nc(-c2ccc(OCC(C)C)c(C#N)c2)sc1C(=O)Nc1ccccc1N | 0.076 µM | > 50 µM | 1.26 µM | > 50 µM |  |  |  | 
14 | Cc1nc(-c2ccc(OCC(C)C)c(C#N)c2)sc1C(=O)NCc1ccc(NC(=O)CCCCCCC(=O)NO)cc1 | > 2 µM | 12.6 µM | 3.42 µM | 12.4 µM |  |  |  | 
15 | Cc1nc(-c2ccc(OCC(C)C)c(C#N)c2)sc1C(=O)NCCCCCCC(=O)Nc1ccccc1N | 0.85 µM | > 50 µM | 1.54 µM | 41.1 µM |  |  |  | 
16 | Cc1nc(-c2ccc(OCC(C)C)c(C#N)c2)sc1C(=O)O [FEBUXOSTAT] |  | > 100 µM | > 100 µM | > 100 µM |  | Active | Active | Active
17 | Cc1nc(-c2ccc(OCC(C)C)c(C#N)c2)sc1C(=O)NCc1ccc(NC(=O)CCCCCCCC(=O)Nc2ccccc2N)cc1 | > 2 µM | 11.2 µM | 1.64 µM | 3.81 µM |  |  |  | 
18 | Cc1nc(-c2ccc(OCC(C)C)c(C#N)c2)sc1C(=O)NCCCCCC(=O)NO | 0.0062 µM | 6.77 µM | 1.29 µM | 6.35 µM |  |  |  | 
19 | Cc1nc(-c2ccc(OCC(C)C)c(C#N)c2)sc1C(=O)NCc1ccc(C(=O)NCCCCCCC(=O)Nc2ccccc2N)cc1 | > 2 µM | > 50 µM | 0.696 µM | > 50 µM |  |  |  | 
